In US8471005B2 (Cephalon, Inc., priority 2008, dated 2013):
pIC50: −log10 of the molar value. Like-named read-outs stand apart in the source and are kept apart here.

Columns and labels:
ALK = molecular target: T1, ALK (Homo sapiens, UniProt Q9UM73); assay: ALK Kinase Assay (ELISA/TRF, PLC-γ substrate); assay type: biochemical; details: read-out: ALK Potency
T1 construct: host or cells: baculovirus expression system
Method in brief: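 First, plates are coated with substrate (phospholipase C-γ, 10 μg/mL, TBS). Next, 30 ng/ml ALK initiates phosphorylation for 15 min at 37° C. Then Eu-N1 PT66 antibody is added for detection, and a nonlinear dose-response fit of percent inhibition yields IC50.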

JAK2 = molecular target: T2, JAK2 (Homo sapiens, UniProt O60674); assay: Recombinant Human JAK2 Kinase Assay (TRF); assay type: biochemical; details: read-out: JAK2 Potency
T2 construct: host or cells: baculovirus expression system
T2 sequence (O60674 whole entry): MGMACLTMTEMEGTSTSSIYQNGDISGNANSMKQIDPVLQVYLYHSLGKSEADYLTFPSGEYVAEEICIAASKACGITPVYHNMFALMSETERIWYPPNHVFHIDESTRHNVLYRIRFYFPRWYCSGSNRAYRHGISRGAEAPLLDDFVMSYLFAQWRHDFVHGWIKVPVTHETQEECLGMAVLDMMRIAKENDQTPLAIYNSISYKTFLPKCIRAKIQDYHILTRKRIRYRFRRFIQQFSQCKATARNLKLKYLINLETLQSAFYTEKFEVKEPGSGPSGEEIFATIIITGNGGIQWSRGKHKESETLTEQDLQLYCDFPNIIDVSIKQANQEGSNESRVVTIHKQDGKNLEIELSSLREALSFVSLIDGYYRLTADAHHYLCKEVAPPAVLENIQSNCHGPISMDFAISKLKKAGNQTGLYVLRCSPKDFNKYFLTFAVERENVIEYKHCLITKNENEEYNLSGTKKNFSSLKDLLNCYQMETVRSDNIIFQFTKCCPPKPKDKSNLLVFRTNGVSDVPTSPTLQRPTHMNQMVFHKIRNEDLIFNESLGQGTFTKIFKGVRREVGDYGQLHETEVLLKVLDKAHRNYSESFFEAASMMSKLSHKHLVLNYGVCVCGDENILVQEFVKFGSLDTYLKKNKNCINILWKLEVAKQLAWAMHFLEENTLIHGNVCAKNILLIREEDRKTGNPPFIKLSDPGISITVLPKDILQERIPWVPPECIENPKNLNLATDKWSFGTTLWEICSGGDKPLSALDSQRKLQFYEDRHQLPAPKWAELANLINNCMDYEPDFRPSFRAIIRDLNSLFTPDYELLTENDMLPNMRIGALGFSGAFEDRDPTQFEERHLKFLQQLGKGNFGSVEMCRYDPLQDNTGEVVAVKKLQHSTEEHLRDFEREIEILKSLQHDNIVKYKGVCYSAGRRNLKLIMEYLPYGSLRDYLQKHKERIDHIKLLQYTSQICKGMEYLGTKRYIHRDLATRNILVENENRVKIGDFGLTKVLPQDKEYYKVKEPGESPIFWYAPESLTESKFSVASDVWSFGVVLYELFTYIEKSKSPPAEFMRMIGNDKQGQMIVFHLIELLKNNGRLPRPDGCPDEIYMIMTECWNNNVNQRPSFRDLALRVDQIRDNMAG
Method in brief: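 TRF read-out: Eu-N1 PY100 anti-phosphotyrosine antibody detects product. Enzyme is baculovirus-expressed JAK2 at 15 ng/ml; substrate is a biotinyl 15-mer peptide bound to Neutravidin-coated wells. Buffer 20 mM HEPES pH 7.2, 0.2 μM ATP, 1 mM MnCl2, 0.1% BSA, 2.5% DMSO final; 20 min, RT.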

[1] = ALK kinase inhibition, 1 μM ATP
[2] = JAK2 kinase inhibition, 0.2 μM ATP

T1 sequence (Q9UM73 19-1620): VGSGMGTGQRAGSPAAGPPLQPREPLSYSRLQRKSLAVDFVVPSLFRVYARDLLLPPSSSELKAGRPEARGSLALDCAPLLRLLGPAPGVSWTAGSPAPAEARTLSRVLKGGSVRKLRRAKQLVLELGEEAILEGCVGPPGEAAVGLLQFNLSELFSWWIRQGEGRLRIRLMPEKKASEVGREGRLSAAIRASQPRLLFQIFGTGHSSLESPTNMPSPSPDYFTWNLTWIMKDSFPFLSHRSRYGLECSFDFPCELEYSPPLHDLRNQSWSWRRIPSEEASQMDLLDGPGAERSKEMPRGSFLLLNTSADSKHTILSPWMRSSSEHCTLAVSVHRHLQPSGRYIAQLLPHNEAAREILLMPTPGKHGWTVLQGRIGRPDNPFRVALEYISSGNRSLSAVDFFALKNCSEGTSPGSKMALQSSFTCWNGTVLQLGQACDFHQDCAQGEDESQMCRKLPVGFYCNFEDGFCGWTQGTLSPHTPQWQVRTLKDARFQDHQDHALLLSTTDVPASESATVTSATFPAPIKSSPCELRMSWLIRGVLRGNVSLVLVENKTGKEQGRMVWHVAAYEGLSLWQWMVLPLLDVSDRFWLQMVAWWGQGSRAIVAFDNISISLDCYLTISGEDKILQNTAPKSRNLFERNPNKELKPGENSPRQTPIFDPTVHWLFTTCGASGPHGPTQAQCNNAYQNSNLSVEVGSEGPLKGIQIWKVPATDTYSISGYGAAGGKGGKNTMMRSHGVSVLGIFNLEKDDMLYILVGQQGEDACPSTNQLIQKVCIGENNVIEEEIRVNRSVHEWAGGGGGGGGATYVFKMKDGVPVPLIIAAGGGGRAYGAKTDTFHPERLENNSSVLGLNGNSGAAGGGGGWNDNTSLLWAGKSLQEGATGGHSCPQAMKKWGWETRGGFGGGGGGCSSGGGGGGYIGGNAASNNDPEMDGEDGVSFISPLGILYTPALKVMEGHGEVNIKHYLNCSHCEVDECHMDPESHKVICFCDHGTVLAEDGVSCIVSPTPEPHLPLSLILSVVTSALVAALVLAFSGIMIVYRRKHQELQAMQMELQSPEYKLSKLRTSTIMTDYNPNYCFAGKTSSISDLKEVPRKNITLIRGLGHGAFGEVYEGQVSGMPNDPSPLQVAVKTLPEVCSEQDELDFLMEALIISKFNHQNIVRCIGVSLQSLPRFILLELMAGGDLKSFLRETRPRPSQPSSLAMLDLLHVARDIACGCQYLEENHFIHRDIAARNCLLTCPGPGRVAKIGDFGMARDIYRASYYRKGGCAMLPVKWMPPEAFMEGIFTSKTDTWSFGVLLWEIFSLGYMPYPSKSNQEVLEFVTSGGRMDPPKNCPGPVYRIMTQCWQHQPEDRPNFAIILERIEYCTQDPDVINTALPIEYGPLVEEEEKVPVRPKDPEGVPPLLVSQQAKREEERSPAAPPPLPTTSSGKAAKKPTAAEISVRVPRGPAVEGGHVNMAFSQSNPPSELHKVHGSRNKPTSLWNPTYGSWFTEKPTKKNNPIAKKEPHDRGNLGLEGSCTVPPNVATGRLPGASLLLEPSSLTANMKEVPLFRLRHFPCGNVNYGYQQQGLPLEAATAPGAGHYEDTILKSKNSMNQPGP

| Structure (SMILES) | pIC50 (ALK; ALK Kinase Inhibition) | pIC50 (JAK2; JAK2 Kinase Inhibition) | pIC50 (ALK; [1]) | pIC50 (JAK2; [2]) |
| --- | --- | --- | --- | --- |
| COc1cc(N2CCN(C)CC2)ccc1Nc1ncc2ccc(-c3ccccc3OC)n2n1 [Example 33, [2-Methoxy-4-(4-methyl-piperazin-1-yl)-phenyl]-[7-(2-methoxy-phenyl)-pyrrolo[2,1-f][1,2,4]triazin-2-yl]-amine] | > 7.00 | > 7.00 | – | – |
| CCOC(=O)c1ccccc1-c1ccc2cnc(Nc3ccc(N4CCN(C)CC4)cc3)nn12 [Example 1146, 2-{2-[4-(4-Methyl-piperazin-1-yl)-phenylamino]-pyrrolo[2,1-f][1,2,4]triazin-7-yl}-benzoic acid ethyl ester] | – | – | 6.00 to 7.00 | > 7.00 |
| CN1CCN(c2ccc(Nc3ncc4ccc(-c5cccc(C(=O)N6CCCC6)c5)n4n3)cc2)CC1 [Example 21, (3-{2-[4-(4-Methyl-piperazin-1-yl)-phenylamino]-pyrrolo[2,1-f][1,2,4]triazin-7-yl}-phenyl)-pyrrolidin-1-yl-methanone] | 6.00 to 7.00 | > 7.00 | – | – |
| CN(c1ccccc1-c1ccc2cnc(Nc3nccs3)nn12)S(C)(=O)=O [Example 1362, N-Methyl-N-{2-[2-(thiazol-2-ylamino)-pyrrolo[2,1-f][1,2,4]triazin-7-yl]-phenyl}-methanesulfonamide] | – | – | 5.00 to 6.00 | 6.00 to 7.00 |
| CCS(=O)(=O)c1cccc(-c2ccc3cnc(Nc4ccc5ncn(C)c5c4)nn23)c1 [Example 1312, [7-(3-Ethanesulfonyl-phenyl)-pyrrolo[2,1-f][1,2,4]triazin-2-yl]-(3-methyl-3H-benzimidazol-5-yl)-amine] | – | – | 5.00 to 6.00 | > 7.00 |
| COc1cc(N2CCCC(N3CCN(C)CC3)C2)ccc1Nc1ncc2ccc(-c3ccccc3OC)n2n1 (stereo not shown) [Example 235, {2-Methoxy-4-[3-(4-methyl-piperazin-1-yl)-piperidin-1-yl]-phenyl}-[7-(2-methoxy-phenyl)-pyrrolo[2,1-f][1,2,4]triazin-2-yl]-amine] | > 7.00 | 6.00 to 7.00 | – | – |
| COc1cc(N2CCOCC2)ccc1Nc1ncc2cc3ccccc3n2n1 [Example 266, (2-Methoxy-4-morpholin-4-yl-phenyl)-[1,2,4]triazino[1,6-a]indol-2-yl-amine] | 5.00 to 6.00 | < 5.00 | – | – |
| CC(C)(C)NS(=O)(=O)c1cccc(-c2ccc3cnc(Nc4ccc(N5CCN(CC(N)=O)CC5)c(F)c4)nn23)c1 [Example 1407, 2-(4-{4-[7-(3-tert-Butylsulfamoyl-phenyl)-pyrrolo[2,1-f][1,2,4]triazin-2-ylamino]-2-fluoro-phenyl}-piperazin-1-yl)-acetamide] | 6.00 to 7.00 | > 7.00 | – | – |
| Cn1cc(-c2ccc3cnc(Nc4cccc(N5CCCC5=O)c4)nn23)cn1 [Example 967, 1-{3-[7-(1-Methyl-1H-pyrazol-4-yl)-\pyrrolo[2,1-f][1,2,4]triazin-2-ylamino]-phenyl}-pyrrolidin-2-one] | – | – | 5.00 to 6.00 | > 7.00 |
| COc1cccc(Nc2ncc3ccc(-c4ccccc4OC)n3n2)c1 [Example 145, (3-Methoxy-phenyl)-[7-(2-methoxy-phenyl)-pyrrolo[2,1-f][1,2,4]triazin-2-yl]-amine] | 5.00 to 6.00 | > 7.00 | – | – |
| COc1ccccc1-c1ccc2cnc(Nc3ccc(C4=CCN(CC(N)=O)CC4)c(C(F)(F)F)c3)nn12 [Example 952, 2-(4-{4-[7-(2-Methoxy-phenyl)-pyrrolo[2,1-f][1,2,4]triazin-2-ylamino]-2-trifluoromethyl-phenyl}-3,6-dihydro-2H-pyridin-1-yl)-acetamide] | – | – | 6.00 to 7.00 | > 7.00 |
| COc1cc(N2CCN(C)CC2)ccc1Nc1ncc2ccc(-c3cc(S(=O)(=O)N(C)C)ccc3C)n2n1 [Example 75, 3-{2-[2-Methoxy-4-(4-methyl-piperazin-1-yl)-phenylamino]-pyrrolo[2,1-f][1,2,4]triazin-7-yl}-4,N,N-trimethyl-benzenesulfonamide] | 6.00 to 7.00 | 6.00 to 7.00 | – | – |
| CS(=O)(=O)Nc1cccc(-c2ccc3cnc(Nc4ccn(CCN5CCOCC5)n4)nn23)c1 [Example 1185, N-(3-{2-[1-(2-Morpholin-4-yl-ethyl)-1H-pyrazol-3-ylamino]-pyrrolo[2,1-f][1,2,4]triazin-7-yl}-phenyl)-methanesulfonamide] | – | – | 5.00 to 6.00 | > 7.00 |
| CN1CCOc2ccc(Nc3ncc4ccc(-c5ccccc5N(C)S(C)(=O)=O)n4n3)cc21 [Example 641, N-Methyl-N-{2-[2-(4-methyl-3,4-dihydro-2H-benzo[1,4]oxazin-6-ylamino)-pyrrolo[2,1-f][1,2,4]triazin-7-yl]-phenyl}methanesulfonamide] | – | – | 6.00 to 7.00 | > 7.00 |
| Cc1nc2cc(Nc3ncc4ccc(-c5cccc(S(=O)(=O)NC(C)(C)C)c5)n4n3)ccc2o1 [Example 600, N-tert-Butyl-3-[2-(2-methyl-benzoxazol-5-ylamino)-pyrrolo[2,1-f][1,2,4]triazin-7-yl]-benzenesulfonamide] | – | – | 5.00 to 6.00 | > 7.00 |
| CN1CCN(CC2CCN(c3ccc(Nc4ncc5ccc(-c6ccc(S(C)(=O)=O)cc6)n5n4)cc3)CC2)CC1 [Example 452, [7-(4-Methanesulfonyl-phenyl)-pyrrolo[2,1-f][1,2,4]triazin-2-yl]-{4-[4-(4-methyl-piperazin-1-ylmethyl)-piperidin-1-yl]-phenyl}-amine] | 6.00 to 7.00 | > 7.00 | – | – |
| COc1ccccc1-c1ccc2cnc(Nc3ccc4c(c3)OCO4)nn12 [Example 149, 1,3-Benzodioxol-5-yl-[7-(2-methoxy-phenyl)-pyrrolo[2,1-f][1,2,4]triazin-2-yl]-amine] | 6.00 to 7.00 | > 7.00 | – | – |
| COc1cc(C2CCN(CC(N)=O)CC2)ccc1Nc1ncc2ccc(-c3cccc(S(=O)(=O)NC4CC4)c3)n2n1 [Example 697, 2-(4-{4-[7-(3-Cyclopropylsulfamoyl-phenyl)-pyrrolo[2,1-f][1,2,4]triazin-2-ylamino]-3-methoxy-phenyl}-piperidin-1-yl)-acetamide] | – | – | > 7.00 | 6.00 to 7.00 |
| CC(C)(C)NS(=O)(=O)c1cccc(-c2ccc3cnc(Nc4ccc(C(N)=O)cc4)nn23)c1 [Example 1399, 4-[7-(3-tert-Butylsulfamoyl-phenyl)-pyrrolo[2,1-f][1,2,4]triazin-2-ylamino]-benzamide] | 5.00 to 6.00 | > 7.00 | – | – |
| Oc1ccc(-c2ccc3cnc(Nc4cccc(N5CCOCC5)c4)nn23)cn1 [Example 332, 5-[2-(3-Morpholin-4-yl-phenylamino)-pyrrolo[2,1-f][1,2,4]triazin-7-yl]-pyridin-2-ol] | < 5.00 | < 5.00 | – | – |
| COc1cc(N2CCCC(N3CC(C)OC(C)C3)C2)ccc1Nc1ncc2ccc(-c3ccccc3OC)n2n1 (stereo not shown) [Example 1445, {4-[3-(2,6-Dimethyl-morpholin-4-yl)-piperidin-1-yl]-2-methoxy-phenyl}-[7-(2-methoxy-phenyl)-pyrrolo[2,1-f][1,2,4]triazin-2-yl]-amine] | > 7.00 | 6.00 to 7.00 | – | – |
| COc1ccc(-c2ccc3cnc(Nc4cccc(C#N)c4)nn23)cn1 [Example 974, 3-[7-(6-Methoxy-pyridin-3-yl)pyrrolo[2,1f][1,2,4]triazin-2-ylamino]-benzonitrile] | – | – | 5.00 to 6.00 | > 7.00 |
| COc1cc(Cn2ccnc2C)ccc1Nc1ncc2ccc(-c3ccccc3OC)n2n1 [Example 506, [2-Methoxy-4-(2-methyl-imidazol-1-ylmethyl)-phenyl]-[7-(2-methoxy-phenyl)-pyrrolo[2,1-f][1,2,4]triazin-2-yl]-amine] | – | – | > 7.00 | 6.00 to 7.00 |
| CS(=O)(=O)c1cccc(-c2ccc3cnc(Nc4cccc(N5CCOCC5)c4)nn23)c1 [Example 184, [7-(3-Methanesulfonyl-phenyl)-pyrrolo[2,1-f][1,2,4]triazin-2-yl]-(3-morpholin-4-yl-phenyl)-amine] | 5.00 to 6.00 | > 7.00 | – | – |
| CN1CCN(c2ccc(Nc3ncc4ccc(-c5ccc(S(C)(=O)=O)cc5)n4n3)cc2F)CC1 [Example 1437, [3-Fluoro-4-(4-methyl-piperazin-1-yl)-phenyl]-[7-(4-methanesulfonyl-phenyl)-pyrrolo[2,1-f][1,2,4]triazin-2-yl]-amine] | 6.00 to 7.00 | > 7.00 | – | – |
| N#CCCn1cc(-c2ccc3cnc(Nc4ccc(C5CCN(CC(N)=O)CC5)cc4)nn23)cn1 [Example 933, 2-[4-(4-{7-[1-(2-Cyano-ethyl)-1H-pyrazol-4-yl]-pyrrolo[2,1-f][1,2,4]triazin-2-ylamino}-phenyl)-piperidin-1-yl]-acetamide] | – | – | 6.00 to 7.00 | > 7.00 |
| C[C@H](O)CN1CCC(c2ccc(Nc3ncc4ccc(-c5cccc(N(C)S(C)(=O)=O)c5)n4n3)cc2)CC1 [Example 960, N-[3-(2-{4-[1-((S)-2-Hydroxy-propyl)-piperidin-4-yl]-phenylamino}-pyrrolo[2,1-f][1,2,4]triazin-7-yl)-phenyl]-N-methyl-methanesulfonamide] | – | – | 6.00 to 7.00 | > 7.00 |
| COc1cc(C2CCN(CC(N)=O)CC2)ccc1Nc1ncc2ccc(-c3cc(F)c(F)cc3N(C)S(C)(=O)=O)n2n1 [Example 746, 2-[4-(4-{7-[4,5-Difluoro-2-(methanesulfonyl-methyl-amino)-phenyl]-pyrrolo[2,1-f][1,2,4]triazin-2-ylamino}-3-methoxy-phenyl)-piperidin-1-yl]-acetamide] | – | – | > 7.00 | 5.00 to 6.00 |
| O=S(=O)(NC1CC1)c1cccc(-c2ccc3cnc(Nc4ccc(N5CCOCC5)cc4)nn23)c1 [Example 356, N-Cyclopropyl-3-[2-(4-morpholin-4-yl-phenylamino)-pyrrolo[2,1-f][1,2,4]triazin-7-yl]-benzenesulfonamide] | 6.00 to 7.00 | > 7.00 | – | – |
